Key:
cereblon (CRBN) = cereblon (CRBN) (Homo sapiens, UniProt Q96SW2); assay: In vitro CRBN binding assay (AlphaScreen, competitive inhibition of the PROTAC assay)
[1] = Stability of 3-MP in human plasma (UPLC-MS); assay type: in vitro ADME
Description: To plot a standard calibration curve, the stock sample was diluted by half with acetonitrile from 125 to 0.39 μg/mL to prepare standard solutions for a total of 10 samples at different concentrations, and the calibration curve was plotted as shown in FIG. 6A.
For the experiment of verifying stability in plasma, 10 μL of the test drug prepared at a concentration of 100 μg/mL was added to 90 μL of human plasma and mixed for 30 seconds, and then immediately after the addition, the plasma-mixed test drug was incubated for 15, 30, 60, or 120 minutes to prepare samples. Afterward, 400 μL of 100% ethyl acetate was added to each sample and extracted using a vortex mixture for 1 minute. […] Initially, the mobile phase B was increased from 5% to 95% until 9 minutes and analyzed, the mobile phase B was maintained 95% until 12 minutes, and then the mobile phase B was lowered to 5% and equilibrated, and used in the subsequent analysis. the flow rate of the mobile phase was 0.3 mL/min, the sample injection volume was 2 μL, and the mass spectrometer was operated in the ESI-positive mode. The spray voltage was set to 3.5 kV, and the flow rates of the nitrogen sheath gas, auxiliary gas, and sweep gas were analyzed as 50, 10, and 1 (arbitrary units), respectively. […]

[2] = system: mouse model with Parkinson's disease induced by MPTP administration; assay: Pillar test in MPTP-induced Parkinson's disease mouse model; assay type: in vivo; details: MPTP mice, oral
Description: To cause the disease, mice in the G2, G3, G4, and G5 groups were administered MPTP dissolved in saline via an intraperitoneal route at 2-hour intervals four times a day (20 mg/kg/time), while the G1 group received the same amount of saline.
Using a wooden pillar (length: 80 cm, diameter: 0.8˜1 cm) placed vertically on the cage floor, mice were trained to turn around from the top of the pillar in the opposite direction and descend to the bottom three times a day on days 2-3 of the test. On day 4 of the test, the same test was performed three times, and the time it took to change direction from the top and descend.

iNOS and COX-2 [3] = assay: iNOS and COX-2 mRNA expression in LPS-stimulated BV-2 cells (real-time PCR); assay type: cell-based, mouse; details: BV-2 cells, 3.33, 10 or 30 μM, 1 μg/mL LPS, 6 hours
Description: (§1) Finally, to determine the mRNA expression levels of iNOS and COX-2, BV-2 was seeded in a 6-well plate (Corning, MD, USA) at 5×10^5 cells/well, and cultured using a DMEM medium (Corning, MD, USA) containing 10% fetal bovine serum (Corning, MD, USA) and 100 U/ml of penicillin/streptomycin (Corning, MD, USA) at 37° C. in a 5% CO2 incubator for one day for stabilization. […] 1 μg/mL of LPS (Sigma, USA) was added to all experimental groups excluding the non-inflammation-induced group and allowed to react at 37° C. in a 5% CO2 incubator for 6 hours.
The drug-treated BV-2 underwent RNA prep according to the kit manual using an RNA prep kit (Monarch Total RNA Miniprep kit, NEB, UK), and the concentration was measured using a nanophotometer (NP80, Implen, Germany). […]
The expression level of each oxidative stress-associated gene in the synthesized cDNA was analyzed and compared using Real-Time PCR (StepOne™ Bioscience, USA) equipment. […] The CT value for the gene of each sample obtained through real-time PCR was normalized by the value of the internal control gene (GAPDH) of each sample, the expression level was estimated inversely by 2ΔΔCT calculation, and the resulting value of each group was quantified and expressed as a percentage relative to the LPS-only treatment group.

iNOS and COX-2 [4] = assay: iNOS and COX-2 protein expression in LPS-stimulated BV-2 cells (immunoblotting); assay type: cell-based, mouse; details: BV-2 cells, 3.33, 10 or 30 μM, 1 μg/mL LPS, 24 hours
Description: To further confirm the oxidative stress suppression effect, the content of nitrite released due to an inflammatory response and the expression levels of iNOS, which is an enzyme that produces nitric oxide, and COX-2, which is cyclooxygenase-2, were determined in mouse microglial cells (BV-2, ATCC, Manassas, VA, USA).
as §1, with “To” for “Finally, to”, “content of nitrite and the protein” for “mRNA”, “12-well” for “6-well”, “1.5×10^5” for “5×10^5”, “24” for “6”
The cells from which the cell culture solution was harvested were disrupted by adding a RIPA buffer containing a protease inhibitor cocktail (Thermo Fisher Scientific), and centrifuged at 14,000 rpm for 15 minutes at 4° C. to obtain a cell extract. Equal amounts of the cell extract were loaded, and proteins were separated through SDS-PAGE and then transferred to a PVDF membrane. […]

IC50 (cereblon (CRBN)): 190 nM
stability in plasma over time ([1]; 0 to 120 minutes): maintained without significant changes
plasma level ([1]; immediately after plasma addition (0 minutes)): 80 µg/mL
SMILES: Nc1cccc2c1C(=S)N(C1CCC(=O)NC1=O)C2=O (stereo not shown) [3-MP, 3-thiopomalidomide]
pillar descent time ([2]; 90 mg/kg): recovered to a level similar to that of the vehicle administration group
pillar descent time ([2]; all doses (10, 30, 90 mg/kg/day), versus MPTP group): reduced to a statistically significant level
mRNA expression of oxidative stress-associated gene (iNOS, COX-2) (iNOS and COX-2 [3]): effectively inhibit the mRNA expression of an oxidative stress-associated gene
expression of oxidative stress-associated proteins (iNOS and COX-2) (iNOS and COX-2 [4]): effectively reduced

From patent US20250161286A1 (AEVIS BIO, INC., priority 2022, published 2025)
